Experimental data as given in patent US5472966A, “Antidepressant heteroarylaminoalkyl derivatives of naphthyl-monazines” (Bristol-Myers Squibb Company, priority 1995, dated 1995).
Structures can show the parent of a compound that is named as a salt.

system: serotonin re-uptake (synaptosomal re-uptake of tritiated serotonin); assay: Inhibition of synaptosomal re-uptake of tritiated serotonin; assay type: biochemical; details: in vitro; nM of test compound that inhibits uptake by 50%; read-out: SUI (Serotonin Uptake Inhibition potency), in vitro IC50
Experimental: Determination of endogenous monoaminergic re-uptake inhibition values for serotonin was accomplished using test methods described by P. Skolnick, et al., Br. J. Pharmacology, (1985), 86, pp. 637-644; with only minor modifications. In vitro IC50 (nM) test values were determined for representative compounds of Formula I based on their inhibition of synaptosomal re-uptake of tritiated serotonin. Test data IC50 values lower than 500 nM are considered to reflect activity as an inhibitor of serotonin re-uptake.

Structure (SMILES)	IC50
COc1cccnc1N(C)CCCN1CC=C(c2cccc3ccccc23)CC1 [Example 14, 3,6-dihydro-N-(3-methoxy-2-pyridinyl)-N-methyl-4-(1-naphthalenyl)-1(2H)-pyridinepropanamine fumarate]	< 100 nM
CCOc1cccnc1N(C)CCCN1CC=C(c2cccc3ccccc23)CC1 [Example 15, 3,6-dihydro-N-(3-ethoxy-2-pyridinyl)-N-methyl-4-(1-naphthalenyl)-1(2H)-pyridinepropanamine fumarate]	< 100 nM
CN(CCCN1CC=C(c2cccc3ccccc23)CC1)c1cc(C(F)(F)F)ccn1 [Example 16, 3,6-dihydro-N-methyl-N-(4-trifluoromethyl-2-pyridinyl)-4-(1-naphthalenyl)-1(2H)-pyridinepropanamine fumarate]	< 100 nM
CN(CCCN1CC=C(c2cccc3ccccc23)CC1)c1ccc(Cl)cn1 [Example 17, 3,6-dihydro-N-methyl-N-(5-chloro-2-pyridinyl)-4-(1-naphthalenyl)-1(2H)-pyridinepropanamine fumarate]	< 10 nM
CN(CCCN1CC=C(c2cccc3ccccc23)CC1)c1cccc(C(F)(F)F)n1 [Example 18, 3,6-dihydro-N-methyl-N-(6-trifluoromethyl-2-pyridinyl)-4-(1-naphthalenyl)-1(2H)-pyridinepropanamine fumarate]	< 100 nM
CN(CCCN1CC=C(c2cccc3ccccc23)CC1)c1cc(Cl)ccn1 [Example 19, 3,6.dihydro-N-methyl-N-(4-chloro-2-pyridinyl)-4-(1-naphthalenyl)-1(2H)-pyridinepropanamine]	< 100 nM
CN(CCCN1CC=C(c2cccc3ccccc23)CC1)c1ccnc(Cl)c1 [Example 20, 3,6-dihydro-N-methyl-N-(2-chloro-4-pyridinyl)-4-(1-naphthalenyl)-1(2H)-pyridinepropanamine fumarate]	< 10 nM
COc1cncnc1N(C)CCCN1CC=C(c2cccc3ccccc23)CC1 [Example 21, 3,6-dihydro-N-(5-methoxy-4-pyrimidinyl)-N-methyl-4-(1-naphthalenyl)-1(2H)-pyridinepropanamine fumarate]	< 10 nM
CCN(CCCN1CC=C(c2cccc3ccccc23)CC1)c1ncncc1OC [Example 22, 3,6-dihydro-N-(5-methoxy-4-pyrimidinyl)-N-ethyl-4-(1-naphthalenyl)-1(2H)-pyridinepropanamine fumarate]	< 10 nM
COc1ccc2cccc(C3=CCN(CCCNc4ncncc4OC)CC3)c2c1 [Example 23, 3,6-dihydro-4-(7-methoxy-1-naphthalenyl)-N-(5-methoxy-4-pyrimidinyl)-1(2H)-pyridinepropanamine fumarate]	< 100 nM
COc1cncnc1NCCCN1CC=C(c2cccc3ccc(F)cc23)CC1 [Example 24, 3,6-dihydro-4-(7-fluoro-1-naphthalenyl)-N-(5-methoxy-4-pyrimidinyl-1(2H)-pyridinepropanamine fumarate]	< 500 nM
COc1cncnc1NCCCN1CC=C(c2cccc3ccc(Cl)cc23)CC1 [Example 25, 3,6-dihydro-4-(7-chloro-1-naphthalenyl)-N-(5-methoxy-4-pyrimidinyl)-1(2H)-pyridinepropanamine fumarate]	< 500 nM
COc1cncnc1NCCN1CC=C(c2cccc3ccccc23)CC1 [Example 26, 3.6-dihydro-4-(1-naphthalenyl)-N-(5-methoxy-4-pyrimidinyl)-1(2H)-pyridineethanamine fumarate]	< 100 nM
COc1cncnc1NCCCN1CC=C(c2cccc3ccccc23)CC1 [Example 27, 3.6-dihydro-4-(1-naphthalenyl)-N-(5-methoxy-4-pyrimidinyl)-1(2H)-pyridinepropanamine hydrochloride]	< 10 nM
CCOc1cncnc1NCCCN1CC=C(c2cccc3ccccc23)CC1 [Example 28, 3,6-dihydro-4-(1-naphthalenyl)-N-(5-ethoxy-4-pyrimidinyl)-1-(2H)-pyridinepropanamine fumarate]	< 10 nM
COc1cnccc1NCCCN1CC=C(c2cccc3ccccc23)CC1 [Example 29, 3,6-dihydro:4-(1-naphthalenyl)-N-(3-methoxy-4-pyridinyl)-1(2H)-pyridinepropanamine fumarate]	< 100 nM
Clc1nccnc1NCCCN1CC=C(c2cccc3ccccc23)CC1 [Example 30, 3,6-dihydro-4-(1-naphthalenyl)-N-(3-chloro-2-pyrazinyl)-1(2H)-pyridinepropanamine fumarate]	< 10 nM
COc1nccnc1NCCCN1CC=C(c2cccc3ccccc23)CC1 [Example 31, 3,6-dihydro-4-(1-naphthalenyl)-N-(3-methoxy-2-pyrazinyl)-1(2H)-pyridinepropanamine fumarate]	< 10 nM
COc1cncnc1NCCCCN1CC=C(c2cccc3ccccc23)CC1 [Example 32, 3,6-dihydro-N-(5-methoxy-4-pyrimidinyl)-4-(1-naphthalenyl)-1(2H)-pyridinebutanamine fumarate]	< 100 nM
COc1cccnc1NCCCN1CC=C(c2cccc3ccccc23)CC1 [Example 33, 3,6-dihydro-N-(3-methoxy-2-pyridinyl)-4-(1-naphthalenyl)-1(2H)pyridinepropanamine fumarate]	< 10 nM
CCOc1cccnc1NCCCN1CC=C(c2cccc3ccccc23)CC1 [Example 34, 3,6-dihydro-N-(3-ethoxy-2-pyridinyl)-4-(1-naphthalenyl)-1(2H)-pyridinepropanamine fumarate]	< 10 nM
FC(F)(F)c1cccc(NCCCN2CC=C(c3cccc4ccccc34)CC2)n1 [Example 35, 3,6-dihydro-N-(6-trifluoromethyl-2-pyridinyl)-4-(1-napthalenyl)-1(2H)-pyridinepropanamine fumarate]	< 100 nM
Clc1ccc(NCCCN2CC=C(c3cccc4ccccc34)CC2)nc1 [Example 36, 3,6-dihydro-N-(5-chloro-2-pyridinyl)-4-(1-naphthalenyl)-1(2H)-pyridinepropanamine fumarate]	< 10 nM
FC(F)(F)c1ccnc(NCCCN2CC=C(c3cccc4ccccc34)CC2)c1 [Example 37, 3,6dihydro-N-(4-trifluromethyl-2-pyridinyl)-4-(1-napthalenyl-1(2H)-pyridinepropanamine fumarate]	< 100 nM
COc1cncnc1NCCCN1CCC(c2cccc3ccccc23)CC1 [Example 38, 4-(1-naphthalenyl)-N-(5-methoxy-4-pyrimidinyl)-1-piperidinepropanaminefumarate]	< 10 nM
C1=C(c2cccc3ccccc23)CCN(CCCNc2cccc3ccccc23)C1 [Example 39, 3,6-dihydro-N-(1-naphthalenyl)-4-(1-naphthalenyl)-1(2H)-pyridinepropanamine fumarate]	< 10 nM
COc1ccccc1NCCCN1CC=C(c2cccc3ccccc23)CC1 [Example 40, 3,6-dihydro-N-(2-methoxyphenyl)-4-(1-naphthalenyl)-1-(2H)-pyridinepropanamine fumarate]	< 10 nM
Clc1cccc(NCCCN2CC=C(c3cccc4ccccc34)CC2)c1 [Example 41, 3,6-dihydro-N-(3-chlorophenyl)-4-(1-naphthalenyl)-1(2H)-pyridinepropanamine fumarate]	< 100 nM
FC(F)(F)c1cccc(NCCCN2CC=C(c3cccc4ccccc34)CC2)c1 [Example 42, 3,6-dihydro-N-(3-trifluoromethylphenyl)-4-(1-naphthalenyl)-1(2H)-pyridinepropanamine fumarate]	< 100 nM
